Source: PMC4126480, “Evaluation of drug interaction potential of Labisia pumila (Kacip Fatimah) and its constituents” (Frontiers in Pharmacology, 2014)
Several values for one entry are separate records, joined by “and”; a condition that tells them apart may be missing. Identical values can stand only once.

Experiments:
[1] = biological target: T1, CYP2D6 (Homo sapiens, UniProt P10635); test: Reversible inhibition of recombinant CYP2D6; assay type: in vitro ADME
T1 construct: purchased BD Gentest (Woburn, MA, USA); host or cells: baculovirus expression system
Description: (§1) The assay for reversible inhibition was conducted in a total volume of 200 μL in 96-well microplates. The assay conditions, enzyme and substrate concentrations were similar as reported earlier ([Crespi et al., 1997]; [Manda et al., 2013]). Test samples or positive controls were serially diluted in a solution (100 μL) of cofactors mix, control protein (0.05 mg of protein/mL), and G-6-PDH to achieve six concentrations (100-0.4 μM or μg/mL). Initial readings were taken to record any inherent fluorescence and the plates were incubated at 37°C for 10 min. Reaction was initiated by the addition of enzyme substrate mixture (100 μL) followed by incubation for 15, 30, or 45 min. The reaction was terminated by the addition of 75 μL of ice cold acetonitrile/0.5 M Tris base (80:20). Fluorescence was measured on Spectramax M5 plate reader (Molecular Devices, Sunnyvale, CA, USA) at specified excitation and emission wavelengths for each substrate. IC50 values (co-incubation assay) were obtained from concentration-response curves generated by plotting concentration versus % inhibition.

[2] = biological target: T2, CYP3A4 (Homo sapiens, UniProt P08684); test: Time dependent inhibition (pre-incubation assay) of recombinant CYP3A4; assay type: in vitro ADME
T2 construct: purchased BD Gentest (Woburn, MA, USA); host or cells: baculovirus expression system
Description: The reaction mixture (180–190 μL), consisting of test sample, recombinant enzyme, control protein (0.05 mg of protein/mL), cofactor mix, G-6-PDH, and 50 mM potassium phosphate buffer (pH 7.4) was pre-incubated for 30 min followed by addition of respective fluorescent substrates (10–20 μL) and further incubation for 15 (CYP1A2), 30 (CYP3A4), or 45 (CYP 2C9 and 2C19) min. The reaction was terminated by addition of 75 μL of ice cold acetonitrile/0.5 M Tris base (80:20) and fluorescence was measured as above. IC50 values (pre-incubation assay) were obtained as above. The shift in the concentration-response curve was calculated as the ratio of IC50 (co-incubation)/IC50 (pre-incubation).

[3] = biological target: T3, CYP1A2 (Homo sapiens, UniProt P05177); test: Prediction of in vivo HDI from in vitro results, CYP1A2; conditions: for Likelihood of causing HDI: CYP1A2, IC50 compared with estimated GIT and plasma concentrations; for Plasma concentration: Table 3, CYP1A2 section
T3 construct: purchased BD Gentest (Woburn, MA, USA); host or cells: baculovirus expression system
T3 sequence (P05177 1-516): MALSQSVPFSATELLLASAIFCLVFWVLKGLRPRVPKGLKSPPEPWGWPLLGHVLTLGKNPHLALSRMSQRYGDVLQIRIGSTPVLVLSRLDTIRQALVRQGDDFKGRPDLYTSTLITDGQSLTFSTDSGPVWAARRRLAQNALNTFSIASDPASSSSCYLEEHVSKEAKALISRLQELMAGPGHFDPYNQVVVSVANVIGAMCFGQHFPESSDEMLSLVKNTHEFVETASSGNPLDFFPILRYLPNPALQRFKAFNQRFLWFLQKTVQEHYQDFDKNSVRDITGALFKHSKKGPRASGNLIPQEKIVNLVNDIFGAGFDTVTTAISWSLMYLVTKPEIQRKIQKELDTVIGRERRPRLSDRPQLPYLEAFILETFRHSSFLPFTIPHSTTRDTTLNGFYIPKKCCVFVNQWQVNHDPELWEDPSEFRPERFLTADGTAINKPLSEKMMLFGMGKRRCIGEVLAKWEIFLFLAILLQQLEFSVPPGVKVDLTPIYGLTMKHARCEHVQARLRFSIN
Description: (§2) All assumptions to predict the HDI potential of KF methanolic extract and its constituents were according to previously published report ([Awortwe et al., 2014]). The % yield was calculated from the amounts extracted from the KF roots ([Ali and Khan, 2011]). The human GIT volume is 250 mL and plasma volume is about 3 L. The commonly used maximum dose of KF extract capsules is 560 mg per day ([Abdul Kadir et al., 2012]) and accordingly we estimated the concentration per dose, GIT, and plasma concentrations of extract and its constituents. We then compared the in vitro IC50 values obtained from recombinant CYPs with estimated GIT and plasma concentrations. If the IC50 values were lower than the GIT or plasma concentration, then the test compound or extract is likely to cause HDI in vivo.

[4] = Estimation of concentration per dose, GIT and plasma concentrations (560 mg KF extract dose); set-up: species or system human; conditions: for Estimated concentration per dose: 560 mg KF extract, single dose, from % yield; for Estimated GIT concentration / Estimated Plasma concentration: 560 mg dose; for Estimated GIT concentration: human GIT volume 250 mL; for Estimated Plasma concentration: Table 2, plasma volume 3 L, 100% bioavailable assumed
Description: as §2

[5] = biological target: T4, CYP2C19 (Homo sapiens, UniProt P33261); test: Reversible inhibition (co-incubation assay) of recombinant CYP2C19; assay type: in vitro ADME
T4 construct: purchased BD Gentest (Woburn, MA, USA); host or cells: baculovirus expression system
Description: as §1

[6] = biological target: T5, CYP2C9 (Homo sapiens, UniProt P11712); test: Prediction of in vivo HDI from in vitro results, CYP2C9; set-up: key to Likelihood of causing HDI: If the IC50 values were lower than the GIT or plasma concentration, then the test compound or extract is likely to cause HDI in vivo; conditions: for Likelihood of causing HDI: CYP2C9, IC50 compared with estimated GIT and plasma concentrations; for Plasma concentration: Table 3, CYP2C9 section
T5 construct: purchased BD Gentest (Woburn, MA, USA); host or cells: baculovirus expression system
Description: as §2

[7] = biological target: T5, CYP2C9; test: Time dependent inhibition (pre-incubation assay) of recombinant CYP2C9; assay type: in vitro ADME; conditions: recombinant CYP2C9, 30 min pre-incubation
Description: Time dependent inhibition (TDI) of CYPs was measured as described earlier by [Sekiguchi et al. (2009)]. The reaction mixture (180–190 μL), consisting of test sample, recombinant enzyme, control protein (0.05 mg of protein/mL), cofactor mix, G-6-PDH, and 50 mM potassium phosphate buffer (pH 7.4) was pre-incubated for 30 min followed by addition of respective fluorescent substrates (10–20 μL) and further incubation for 15 (CYP1A2), 30 (CYP3A4), or 45 (CYP 2C9 and 2C19) min. The reaction was terminated by addition of 75 μL of ice cold acetonitrile/0.5 M Tris base (80:20) and fluorescence was measured as above. IC50 values (pre-incubation assay) were obtained as above. The shift in the concentration-response curve was calculated as the ratio of IC50 (co-incubation)/IC50 (pre-incubation).

[8] = biological target: T2, CYP3A4; test: Reversible inhibition (co-incubation assay) of recombinant CYP3A4, fluorescent substrate; assay type: in vitro ADME
Description: as §1, with “The assay conditions, enzyme and substrate concentrations were similar as reported earlier ([Crespi et al., 1997]; [Manda et al., 2013]).” left out

[9] = recombinant CYP2C19, co-incubation

T2 sequence (P08684 whole entry): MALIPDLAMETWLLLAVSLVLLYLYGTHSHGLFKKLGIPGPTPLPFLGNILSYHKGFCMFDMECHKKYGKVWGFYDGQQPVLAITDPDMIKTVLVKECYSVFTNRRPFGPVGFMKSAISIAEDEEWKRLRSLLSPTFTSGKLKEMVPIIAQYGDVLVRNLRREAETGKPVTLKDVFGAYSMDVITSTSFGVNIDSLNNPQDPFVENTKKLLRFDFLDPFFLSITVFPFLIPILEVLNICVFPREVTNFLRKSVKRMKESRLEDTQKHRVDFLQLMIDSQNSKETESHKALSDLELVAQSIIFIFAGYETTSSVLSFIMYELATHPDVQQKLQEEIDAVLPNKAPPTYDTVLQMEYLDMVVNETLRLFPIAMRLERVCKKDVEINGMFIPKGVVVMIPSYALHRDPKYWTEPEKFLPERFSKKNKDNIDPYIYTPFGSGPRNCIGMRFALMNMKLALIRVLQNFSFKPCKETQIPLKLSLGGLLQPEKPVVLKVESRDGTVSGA
T1 sequence (P10635 whole entry): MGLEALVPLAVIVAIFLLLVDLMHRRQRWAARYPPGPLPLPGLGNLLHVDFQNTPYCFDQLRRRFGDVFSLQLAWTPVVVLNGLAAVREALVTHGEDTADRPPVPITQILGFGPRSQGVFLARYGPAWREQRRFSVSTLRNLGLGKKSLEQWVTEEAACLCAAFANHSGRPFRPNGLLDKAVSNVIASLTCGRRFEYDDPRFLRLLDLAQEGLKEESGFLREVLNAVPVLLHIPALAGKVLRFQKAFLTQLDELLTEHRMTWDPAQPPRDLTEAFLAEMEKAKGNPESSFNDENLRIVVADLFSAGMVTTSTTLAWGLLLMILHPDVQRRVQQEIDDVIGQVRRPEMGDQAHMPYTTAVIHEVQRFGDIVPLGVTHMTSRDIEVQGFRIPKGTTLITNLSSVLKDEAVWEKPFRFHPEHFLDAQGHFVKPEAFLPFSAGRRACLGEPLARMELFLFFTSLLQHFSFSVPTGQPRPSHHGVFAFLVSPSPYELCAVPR
T5 sequence (P11712 whole entry): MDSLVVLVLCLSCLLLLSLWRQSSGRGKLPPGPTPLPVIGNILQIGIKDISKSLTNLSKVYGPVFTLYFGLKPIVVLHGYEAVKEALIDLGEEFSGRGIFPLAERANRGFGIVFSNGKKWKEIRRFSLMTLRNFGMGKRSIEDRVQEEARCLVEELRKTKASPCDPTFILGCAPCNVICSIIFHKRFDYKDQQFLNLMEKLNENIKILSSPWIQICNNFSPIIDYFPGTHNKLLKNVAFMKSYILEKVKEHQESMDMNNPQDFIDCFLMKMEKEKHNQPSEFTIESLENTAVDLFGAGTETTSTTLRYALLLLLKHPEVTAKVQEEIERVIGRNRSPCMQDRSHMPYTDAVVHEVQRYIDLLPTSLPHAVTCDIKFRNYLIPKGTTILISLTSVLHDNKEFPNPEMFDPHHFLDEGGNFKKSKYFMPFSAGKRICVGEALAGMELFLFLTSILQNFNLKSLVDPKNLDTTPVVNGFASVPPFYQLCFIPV
T4 sequence (P33261 whole entry): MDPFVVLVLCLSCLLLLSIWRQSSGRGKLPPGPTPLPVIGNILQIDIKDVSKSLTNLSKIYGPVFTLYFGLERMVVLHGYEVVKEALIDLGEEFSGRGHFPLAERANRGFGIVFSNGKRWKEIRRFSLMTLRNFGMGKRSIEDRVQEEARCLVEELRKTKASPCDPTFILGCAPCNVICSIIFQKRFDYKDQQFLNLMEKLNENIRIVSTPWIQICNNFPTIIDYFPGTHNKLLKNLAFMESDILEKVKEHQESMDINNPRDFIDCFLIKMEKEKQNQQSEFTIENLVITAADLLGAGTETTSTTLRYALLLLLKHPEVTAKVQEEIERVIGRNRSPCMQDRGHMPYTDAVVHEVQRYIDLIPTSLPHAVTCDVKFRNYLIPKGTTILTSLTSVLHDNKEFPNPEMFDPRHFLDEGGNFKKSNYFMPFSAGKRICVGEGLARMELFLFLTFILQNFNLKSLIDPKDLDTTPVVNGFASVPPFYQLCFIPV

Row | IC50 [1] | IC50 [2] | Likelihood of causing HDI [3] | Plasma concentration [3] | Estimated concentration per dose [4] | Estimated GIT concentration [4] | Estimated Plasma concentration [4] | IC50 [5, 9] | Likelihood of causing HDI [6] | Plasma concentration [6] | IC50 [7] | IC50 [8] | SMILES | IC50 ([5]; human, recombinant CYP2C19, recombinant CYP2C19, co-incubation)
1 | 87.9 µM | 0.3 ± 0.06 µM | Remote | 774 ng/mL | 6.72 mg/mL | 27.1 µg/mL | 2.2 µg/mL | 3.77 µM | likely | 13220 ng/mL | 8 ± 1.4 µM | 4.1 µM and 4.4 µM | CCCC/C=C\CCCCCCCCCc1cc(O)cc(O)c1 [5-[10(Z)-pentadecenyl]resorcinol] | 
2 | 33.2 µM | 26 ± 1.5 µM | unlikely | 722 ng/mL | 6.77 mg/mL | 27.1 µg/mL | 2.25 µg/mL | 8 µM and 7.99 µM | likely | 790 ng/mL | 22 ± 1.8 µM | 69 µM and 67.9 µM | CCCC/C=C\CCCCCCCCCC1=C(c2c(O)cc(O)cc2CCCCCCCCC/C=C\CCCC)C(=O)C=C(OC)C1=O [Demethylbelamcandaquinone B] | 
3 |  | 4.4 ± 1.3 µM | unlikely | 16 ng/mL | 0.05 mg/mL | 0.20 µg/mL | 0.016 µg/mL | 17 µM | unlikely | 16 ng/mL | 23 ± 1.5 µM | 25 µM and 24.7 µM | CCCC/C=C\CCCCCCCCCc1cc(O)cc2oc3cc(OC)c(O)c(CCCCCCCCC/C=C\CCCC)c3c12 [Fatimahol] | 

Row | SMILES | IC50 [1] | IC50 [2] | Likelihood of causing HDI [3] | Plasma concentration [3] | Estimated concentration per dose [4] | Estimated GIT concentration [4] | Estimated Plasma concentration [4] | IC50 [5, 9] | Likelihood of causing HDI [6] | Plasma concentration [6] | IC50 [7] | IC50 [8] | IC50 ([5]; human, recombinant CYP2C19, recombinant CYP2C19, co-incubation)
4 | CCCC/C=C\CCCCCCCCCc1cc(O)cc(OC)c1 [Belamcandol B] | 105 µM | 10 ± 1.3 µM | unlikely | 310 ng/mL | 3.41 mg/mL | 13.64 µg/mL | 1.13 µg/mL | 2.2 ± 0.6 µM | remote |  | 23 ± 2.1 µM | 18 µM and 45.1 µM | 2.2 µg/mL
